Results taken from US11793824B2, “Administration of nicotinamide mononucleotide in the treatment of disease” (Washington University, priority 2013, dated 2023).

System: neurospheres (NSPCs)
Assay: Microarray with parametric analysis of gene set enrichment (PAGE) of FK866-treated neurospheres
Type: cell-based, mouse
Description: For individual genes, raw microarray data were subjected to Z score transformation, and Z ratios were calculated as described previously (Cheadle et al, 2003). Subsequent analysis and Parametric Analysis of Gene Set Enrichment (PAGE) analysis was performed as previously described (Yoshino et al, 2011). The microarray data used in this study has been deposited into the NCBI GEO database (GEO accession number GSE49784).
The inventors investigated how inhibition of Nampt affects neurosphere proliferation. […] To distinguish whether this decrease in cell number was due to an inhibition of proliferation or enhancement of death, the inventors analyzed the protein levels of markers of proliferation, apoptosis, and autophagy. […] Parametric analysis of gene enrichment (PAGE) was conducted based on microarray analyses. See the Methods section. […] Data are presented as mean±s.e.m. *P<0.05. **P<0.01. ***P<0.001.

[1] = FK866 10 nM 48 hours, downregulated pathway
[2] = FK866 10 nM 48 hours, upregulated pathway

## O=C(/C=C/c1cccnc1)NCCCCC1CCN(C(=O)c2ccccc2)CC1 [FK866]
[1]
  Z Ratio: BASE_EXCISION_REPAIR: −4.3
  Z Ratio: CELL_CYCLE_CHECKPOINT_GO_0000075: −3.92
  Z Ratio: CELL_CYCLE_GO_0007049: −4.63
  Z Ratio: CELL_CYCLE_PHASE: −4.23
  Z Ratio: CELL_CYCLE_PROCESS: −4.75
  Z Ratio: CHROMOSOMAL_PART: −3.48
  Z Ratio: CHROMOSOME: −4.75
  Z Ratio: CONDENSED_CHROMOSOME: −3.57
  Z Ratio: CONDENSED_NUCLEAR_CHROMOSOME: −3.36
  Z Ratio: DNA_DEPENDENT_DNA_REPLICATION: −6.07
  Z Ratio: DNA_INTEGRITY_CHECKPOINT: −3.2
  Z Ratio: DNA_METABOLIC_PROCESS: −6.49
  Z Ratio: DNA_RECOMBINATION: −3.69
  Z Ratio: DNA_REPAIR: −5.98
  Z Ratio: DNA_REPLICATION: −6.2
  Z Ratio: DOUBLE_STRANDED_DNA_BINDING: −3.95
  Z Ratio: HYDROLASE_ACTIVITY_HYDROLYZING_N_GLYCOSYL_COMPOUNDS: −3.63
  Z Ratio: INTERPHASE: −3.28
  Z Ratio: INTERPHASE_OF_MITOTIC_CELL_CYCLE: −3.07
  Z Ratio: INTRACELLULAR_NON_MEMBRANE_BOUND_ORGANELLE: −3.46
  Z Ratio: INTRACELLULAR_ORGANELLE_PART: −5.85
  Z Ratio: MACROMOLECULAR_COMPLEX: −4.14
  Z Ratio: MEMBRANE_ENCLOSED_LUMEN: −5.04
  Z Ratio: METHYLTRANSFERASE_ACTIVITY: −3.3
  Z Ratio: MITOTIC_CELL_CYCLE: −3.48
  Z Ratio: M_PHASE: −3.67
  Z Ratio: NON_MEMBRANE_BOUND_ORGANELLE: −3.46
  Z Ratio: NUCLEAR_CHROMOSOME: −4.11
  Z Ratio: NUCLEAR_LUMEN: −4.74
  Z Ratio: NUCLEAR_PART: −7.07
  Z Ratio: NUCLEOBASE_NUCLEOSIDE_AND_NUCLEOTIDE_METABOLIC_PROCESS: −3.35
  Z Ratio: NUCLEOBASE_NUCLEOSIDE_NUCLEOTIDE_AND_NUCLEIC_ACID: −5.34
  Z Ratio: NUCLEOLUS: −3.47
  Z Ratio: NUCLEOPLASM: −3.62
  Z Ratio: NUCLEOTIDE_METABOLIC_PROCESS: −3.21
  Z Ratio: NUCLEUS: −5.95
  Z Ratio: ORGANELLE_LUMEN: −5.04
  Z Ratio: ORGANELLE_PART: −5.72
  Z Ratio: PROTEIN_COMPLEX: −3.08
  Z Ratio: REPLICATION_FORK: −3.6
  Z Ratio: RESPONSE_TO_DNA_DAMAGE_STIMULUS: −5.8
  Z Ratio: RESPONSE_TO_ENDOGENOUS_STIMULUS: −4.18
  Z Ratio: RIBONUCLEOPROTEIN_COMPLEX: −3.49
  Z Ratio: RNA_BINDING: −3.44
  Z Ratio: RNA_PROCESSING: −4.32
  Z Ratio: SINGLE_STRANDED_DNA_BINDING: −3.17
  Z Ratio: STRUCTURE_SPECIFIC_DNA_BINDING: −4.08
  Z Ratio: TRANSFERASE_ACTIVITY_TRANSFERRING_ONE_CARBON_GROUPS: −3.37
  Z Ratio: TRNA_METABOLIC_PROCESS: −3.76
  Z Ratio: TRNA_PROCESSING: −3.51
[2]
  Z Ratio: ACTIN_FILAMENT_BASED_PROCESS: 3.18
  Z Ratio: ANATOMICAL_STRUCTURE_DEVELOPMENT: 4.47
  Z Ratio: ANATOMICAL_STRUCTURE_MORPHOGENESIS: 3.39
  Z Ratio: AXON_GUIDANCE: 3.34
  Z Ratio: CELL_DEVELOPMENT: 3.44
  Z Ratio: CELL_JUNCTION: 3.29
  Z Ratio: CELL_MATRIX_ADHESION: 3.18
  Z Ratio: CELL_MATRIX_JUNCTION: 3.20
  Z Ratio: CELL_SUBSTRATE_ADHERENS_JUNCTION: 3.17
  Z Ratio: CELL_SURFACE_RECEPTOR_LINKED_SIGNAL_TRANS-DUCTION_GO_000166: 3.17
  Z Ratio: CYTOSKELETAL_PROTEIN_BINDING: 3.36
  Z Ratio: EARLY_ENDOSOME: 3.37
  Z Ratio: ENZYME_LINKED_RECEPTOR_PROTEIN_SIGNALING_PATHWAY: 4.05
  Z Ratio: EXTRACELLULAR_REGION: 4.10
  Z Ratio: EXTRACELLULAR_REGION_PART: 3.82
  Z Ratio: EXTRACELLULAR_SPACE: 3.66
  Z Ratio: FOCAL_ADHESION: 3.44
  Z Ratio: FOCAL_ADHESION_FORMATION: 3.83
  Z Ratio: GENERATION_OF_NEURONS: 3.34
  Z Ratio: Growth: 3.85
  Z Ratio: IDENTICAL_PROTEIN_BINDING: 3.19
  Z Ratio: INTERMEDIATE_FILAMENT: 3.61
  Z Ratio: INTERMEDIATE_FILAMENT_CYTOSKELETON: 3.61
  Z Ratio: LIGAND_DEPENDENT_NUCLEAR_RECEPTOR_ACTIVITY: 3.26
  Z Ratio: LIPID_HOMEOSTASIS: 3.28
  Z Ratio: MEMBRANE: 3.55
  Z Ratio: MESODERM_DEVELOPMENT: 3.45
  Z Ratio: MULTICELLULAR_ORGANISMAL_DEVELOPMENT: 4.64
  Z Ratio: NEGATIVE_REGULATION_OF_GROWTH: 3.84
  Z Ratio: NERVOUS_SYSTEM_DEVELOPMENT: 3.39
  Z Ratio: NEUROGENESIS: 3.21
  Z Ratio: NEURON_PROJECTION: 3.62
  Z Ratio: OLIGOSACCHARIDE_METABOLIC_PROCESS: 3.82
  Z Ratio: ORGAN_DEVELOPMENT: 4.28
  Z Ratio: PDZ_DOMAIN_BINDING: 3.26
  Z Ratio: PHOSPHOINOSITIDE_BINDING: 4.49
  Z Ratio: PLASMA_MEMBRANE: 3.46
  Z Ratio: POSITIVE_REGULATION_OF_SECRETION: 3.51
  Z Ratio: RECEPTOR_BINDING: 4.25
  Z Ratio: REGULATION_OF_CELL_GROWTH: 3.49
  Z Ratio: REGULATION_OF_GROWTH: 3.48
  Z Ratio: REGULATION_OF_SIGNAL_TRANSDUCTION: 3.77
  Z Ratio: SENSORY_PERCEPTION: 3.57
  Z Ratio: SIALYLTRANSFERASE_ACTIVITY: 1.61
  Z Ratio: SIGNAL_TRANSDUCTION: 3.47
  Z Ratio: SYSTEM_DEVELOPMENT: 4.69
  Z Ratio: SYSTEM_PROCESS: 3.74
  Z Ratio: TASTE_RECEPTOR_ACTIVITY: 3.36
  Z Ratio: TRANSMEMBRANE_RECEPTOR_PROTEIN_TYROSINE_KINASE_SIGNALING_PATH: 3.18
  Z Ratio: VACUOLE: 3.19
FK866-treated neurospheres
  number of the top 50 downregulated pathways related to the cell cycle: 13
  top 50 upregulated pathways involved in cell death: none
